In US12624031B2, “Inhibitors of ubiquitin specific peptidase 22 (USP22) and uses thereof for treating diseases and disorders” (Northwestern University, priority 2022, dated 2026):

Columns and labels:
LLC1 tumors in WT mice = experiment: LLC1 tumor model in WT mice; format: in vivo
Method: FIG. 5: Usp22 inhibitor administration enhances antitumor immunity. A, Structure of compound CS30 (Usp22i-S02). B, FOXP3 MFI in WT and 22KO of Treg cells after treatment with 20 μg/kg of Usp22i-S02 in vivo (n=3). C, Representative flow cytometry plot of FOXP3+CD25+MFI of CD4+ peripheral cells of mice treated with 20 μg/kg of Usp22i-S 02 relative to control (n=5). D, Graphical representation of Foxp3 MFI upon Usp22i-S02 administration (n=5). E, Tumor growth curve of LLC1 cells subcutaneously injected in the flank of WT mice with or without the addition of 20 mg/kg/time of the Usp22 inhibitor starting at day 15, in 100 μL of oil (n=4). F-G, Representative flow cytometry plot and graphical representation of % infiltration of CD4+ and CD8+ T cells within the tumor (n=4). H, Representative histogram plot and graphical representation of intratumoral Treg (itTreg) Foxp3 MFI (n=4). I, MFI of itTreg suppressive markers (n=3-4). J, Percent Foxp3+IFNg+itTreg cells in control and Usp22-S02 treated mice (n=3-4). B, D-E, G, H-I Two-way ANOVA with multiple comparisons between rows was performed to determine statistical significance. J, Unpaired two tailed T test was performed to determine significance. All data are presented as mean±stdev. NS, not significant. *P<0.05, **P<0.01, ***P<0.001, ****P<0.0001.
FIG. 7: Usp22i-S02 has little effect on naïve mice, yet enhances anti-tumor immunity in LLC1-challenged mice. A, Body weight of Usp22i-S02 treated mice verses DMSO treated controls over the course of treatment (n=4). A-F. Injections were twice a day for 3 consecutive days at 10 μg/kg (n=4). B, Percent of cell populations in naïve mice treated with Usp22i-S02 relative to DMSO control (n=3-4). C, Percent of KI-67+ cells in various compartments in naïve mice treated with Usp22i-S02 relative to DMSO control (n=3-4). D, Percent CD44^hiCD62L^lo in T cell populations gated on CD45+ cells in naïve mice treated with Usp22i-S02 relative to DMSO control (n=3). E, Percent Annexin+PI+ T cells gates on CD45+ cells in naïve mice treated with Usp22i-S02 relative to DMSO control (n=4). F-H, Organ toxicity panel (VetScan VS2 Comprehensive Diagnostic Rotor lot 1061AA2) of naïve mice treated with Usp22i-S02 relative to DMSO control (n=2-3). I, Growth curve of subcutaneously injected LLC1 in WT mice treated with Usp22i-S02 at 10 μg/kg (n=5-10). I-Q, Injections were twice a day for 5 consecutive days at 10 μg/kg. J, Weights of resected tumors at day 16 from I (n=10). K-L, Representative flow plot and graphical representation of infiltrating T cells gated on CD45+ cells (n=5). M-P, Characterization of intratumoral CD8+ T cells frome mice treated with Usp22i-S02 (n=3-5). Q, Percent of intratumoral Treg cells from mice treated with Usp22i-S02 verses DMSO control, gated on CD4+Foxp3+ from mice (n=5). A-E, I and L, Two-way ANOVA with Sidaks's multiple comparisons between rows relative to control was performed to determine statistical significance. F-H, J, and M-Q, Two-tailed unpaired t-test was performed to determine statistical significance. All data are presented as mean±stdev. NS, not significant. *P<0.05, **P<0.01, ***P<0.001, ****P<0.0001.
To determine the functionality of Usp22i-S02 as a potential therapeutic, we tested the inhibitor on established tumors. […] Further analysis of tumor infiltrating lymphocytes was done on mice treated immediately following tumor implantation (FIG. 7I).
LLC1 cells were transplanted into 6-to-8-week-old C57BL/6 male mice. Subcutaneous injections were performed in the right flank of mice in a final volume of 100 μL using […] per injection. The USP22i-S02 was injected intraperitoneally (i.p) at a concentration of 20 mg/kg/time, in 100 μL of oil, twice a day for 5 days beginning on the day of the LLC1 cells injection. Control animals received 100 μL of oil alone. Subcutaneous tumor diameters were measured daily with calipers until any tumor in the mouse cohort reached 2.5 cm in its largest diameter.

[1] = test system: FoxP3 expression in CD4+ natural T-regulatory cells; experiment: FoxP3 expression in natural T-regulatory cells by flow cytometry; format: cell-based, murine; conditions: concentration of 1-2 ug
Method: FIGS. 3 and 4: Change in FoxP3 expression in murine CD4+ natural T-regulatory cells. Murine lymphocytes were isolated from the spleens and lymph nodes and cultured with varying concentrations of inhibitor (0.25 μg/mL to 2 μg/mL) or DMSO, anti-CD3, anti-CD28, TGFβ, and IL-2. After two days, lymphocytes were analyzed by flow cytometry for FoxP3 expression in natural T-regulatory (nTregs) gated on CD3+CD4+CD25+FoxP3+. (FIG. 3) Representative histograms of FITC::FoxP3 MFI in nTregs cultured with inhibitors at a concentration of 2 μg/mL. (FIG. 4) Representative plot of FITC::FoxP3 geometric MFI in nTregs across different concentrations of inhibitor.
We then analyzed whether treatment of Tregs with the compounds S106, 107 and 110 inhibits USP22 activity in Tregs as measured by FoxP3 expression levels by flow cytometry.

With `N#Cc1c2c(c(Nc3ccccc3)n3c1nc1ccccc13)CCCC2` [USP22i-S02, 11-anilino-7,8,9,10-tetrahydrobenzimidazo[1,2-b]isoquinoline-6-carbonitrile] the “tumor growth of established LLC1 tumors” value (LLC1 tumors in WT mice; WT mice, 20 mg/kg/time starting at day 15) was “striking tumor rejection”, the “itTreg GITR and PD-1 levels” value (LLC1 tumors in WT mice; established LLC1 tumors) was “lower levels of GITR and PD-1” and the “itTreg IFN-γ levels” value (LLC1 tumors in WT mice; established LLC1 tumors) was “significantly higher levels of IFN-γ”. The “Teff cell tumor infiltration” value (LLC1 tumors in WT mice; established LLC1 tumors, WT mice) was “significant increase in Teff cell tumor infiltration”, the “intratumoral Foxp3+ Treg percentage” value (LLC1 tumors in WT mice; established LLC1 tumors, not splenic) was “significantly decreased” and the “intratumoral CD8+ T cell phenotype” value (LLC1 tumors in WT mice; treated immediately following tumor implantation) was “less exhausted phenotype”. For the same compound, the “intratumoral Foxp3+ Treg percentage” value (LLC1 tumors in WT mice; treated immediately following tumor implantation (FIG. 7Q)) was “significantly decreased”, the tumor burden (LLC1 tumors in WT mice; treated immediately following tumor implantation, twice a day for 5 days at 10 μg/kg) was “decreased tumor burden” and the “FoxP3 expression levels in Tregs” value [1] was “did not reduce the levels of FoxP3”.
